Results from ChEMBL document CHEMBL1681651, “A broad spectrum anticancer nucleoside with selective toxicity against human colon cells in vitro” (2011).

Columns and labels:
Type in all cases: functional
MDA-MB-468 [1] = experiment: Growth inhibition of human MDA-MB-468 cells assessed as cell growth at 0.1 uM after 48 hrs by SRB assay; settings: MDA-MB-468, 48 h, read-out: Activity
MDA-MB-468 [2] = experiment: Growth inhibition of human MDA-MB-468 cells assessed as cell growth at 100 uM after 48 hrs by SRB assay; settings: MDA-MB-468, 48 h, read-out: Activity
MDA-MB-468 [3] = experiment: Growth inhibition of human MDA-MB-468 cells assessed as cell growth at 1 uM after 48 hrs by SRB assay; settings: MDA-MB-468, 48 h, read-out: Activity
MDA-MB-468 [4] = experiment: Growth inhibition of human MDA-MB-468 cells assessed as cell growth at 1 mM after 48 hrs by SRB assay; settings: MDA-MB-468, 48 h, read-out: Activity
SR [5] = experiment: Growth inhibition of human SR cells after 48 hrs by SRB assay
HL-60(TB) = experiment: Growth inhibition of human HL-60(TB) cells assessed as cell growth at 0.1 uM after 48 hrs by SRB assay; settings: HL-60, 48 h, read-out: Activity
SR [6] = experiment: Growth inhibition of human SR cells assessed as cell growth at 0.1 uM after 48 hrs by SRB assay; settings: read-out: Activity
SW-620 [7] = experiment: Growth inhibition of human SW620 cells assessed as cell growth at 0.1 uM after 48 hrs by SRB assay; settings: SW-620, 48 h, read-out: Activity
SR [8] = experiment: Growth inhibition of human SR cells assessed as cell growth at 100 uM after 48 hrs by SRB assay; settings: read-out: Activity
T47D = experiment: Growth inhibition of human T47D cells assessed as cell growth at 100 uM after 48 hrs by SRB assay; settings: read-out: Activity
K562 [9] = experiment: Growth inhibition of human K562 cells assessed as cell growth at 1 mM after 48 hrs by SRB assay; settings: K562, 48 h, read-out: Activity
MOLT-4 = experiment: Growth inhibition of human MOLT4 cells assessed as cell growth at 1 mM after 48 hrs by SRB assay; settings: MOLT-4, 48 h, read-out: Activity
SW-620 [10] = experiment: Growth inhibition of human SW620 cells assessed as cell growth at 1 mM after 48 hrs by SRB assay; settings: SW-620, 48 h, read-out: Activity
SK-MEL-28 = experiment: Growth inhibition of human SK-MEL-28 cells assessed as cell growth at 1 mM after 48 hrs by SRB assay; settings: SK-MEL-28, 48 h, read-out: Activity
[11] = Growth inhibition of human Hs 578T cells assessed as cell growth at 1 mM after 48 hrs by SRB assay; settings: read-out: Activity
K562 [12] = experiment: Growth inhibition of human K562 cells assessed as cell growth at 1 uM after 48 hrs by SRB assay; settings: K562, 48 h, read-out: Activity
SW-620 [13] = experiment: Growth inhibition of human SW620 cells assessed as cell growth at 1 uM after 48 hrs by SRB assay; settings: SW-620, 48 h, read-out: Activity
[14] = read-out: LC50 (the source's name)
[15] = read-out: pLC50 (the source's name) (converted)

Structure (SMILES)	GI50 (SR [5]; read-out: GI50)	CC50 (SR [5]; [14])	TGI (SR [5]; read-out: TGI)	GI50 (SR [5]; read-out: pGI50 (converted))	CC50 (SR [5]; [15])	TGI (SR [5]; read-out: pTGI (converted))	growth at 0.1 µM (HL-60(TB))	growth at 0.1 µM (SR [6])	growth at 0.1 µM (SW-620 [7])	growth at 100 µM (SR [8])	growth at 100 µM (T47D)	growth at 1000 µM (K562 [9])	growth at 1000 µM (MOLT-4)	growth at 1000 µM (SW-620 [10])	growth at 1000 µM (SK-MEL-28)	growth at 1000 µM [11]	growth at 1 µM (K562 [12])	growth at 1 µM (SW-620 [13])	other results
CNC(=O)NC[C@H]1O[C@@H](n2cnc3c(NC(=O)Nc4ccccc4)ncnc32)[C@H](O[Si](C)(C)C(C)(C)C)[C@@H]1O[Si](C)(C)C(C)(C)C																			growth at 0.1 µM (MDA-MB-468 [1]): 101%; growth at 100 µM (MDA-MB-468 [2]): 6%; growth at 1 µM (MDA-MB-468 [3]): 104%; growth at 1000 µM (MDA-MB-468 [4]): -35%
CCOC(=O)C[C@H]1[C@@H](O[Si](C)(C)C(C)(C)C)[C@H](n2cnc3c(NC(=O)Nc4ccccc4)ncnc32)O[C@@H]1CNC(=O)NC	2.23 µM	> 100 µM	7.07 µM	2.24 µM	> 100 µM	7.08 µM	85%	82%	97%	-15%	16%	-17%	-14%	-33%	-91%	-7%	93%	94%	
CNC(=O)NC[C@H]1O[C@@H](n2cnc3c(NC(=O)Nc4ccccc4)ncnc32)[C@H](O[Si](C)(C)C(C)(C)C)[C@@H]1CC(=O)N(C)OC	1.27 µM	9.43 µM	3.46 µM	1.26 µM	9.33 µM	3.47 µM	95%	85%	99%	-53%	56%	24%	-5%	50%	27%	12%	95%	102%	
